Assay results reported in article PMC12291851, “Hydrogen Sulfide (H2S)-Donating Formyl Peptide Receptor 2 (FPR2) Agonists: Design, Synthesis, and Biological Evaluation in Primary Mouse Microglia Culture” (Antioxidants, 2025).

Experiments:
[1] = tested on: mouse models of autism spectrum disorder; set-up: method as in PMID 35215274; details: chronic administration; ref [22]; cited from earlier work
[2] = tested on: LPS-stimulated rat primary microglial cells and mice organotypic hippocampal cultures; details: LPS stimulation; ref [19],[20]; cited from earlier work
APP/PS1 mice = tested on: APP/PS1 mice; set-up: method as in PMID 34468933; details: in vivo administration, ref [21]; cited from earlier work
HepG2 cells = experiment: Intracellular H2S release with WSP-1 probe; assay type: cell-based, human; details: HepG2, tested concentrations 100-300 μM, 60 min
Experimental: All cell culture reagents were purchased from S.I.A.L. S.r.l. (Rome, Italy). WSP-1 (Washington State Probe-1, 3′-methoxy-3-oxo-3H-spiro[isobenzofuran-1,9′-xanthen]-6′-yl 2-(pyridine-2-yl-disulfanyl benzoate), was obtained from Cayman Chemical (Cayman, Ann Arbor, MI, USA). HepG2, human hepatocellular carcinoma cells, was obtained from American Type Culture Collection (ATCC, Bethesda, MD, USA). Human hepatocellular carcinoma cells (HepG2) were cultured in Minimum Essential Eagle’s Medium. This medium was supplemented with 10% (v/v) Fetal Bovine Serum, 1% (v/v) Glutamine and 1% (v/v) Penicillin-Streptomycin, 1% non-essential amino acids. Cells were cultivated at 37 °C with 5% CO2 at saturated humidity.
These experiments were carried out as already described. HepG2 cells were cultured up to about 90% confluence, and 24 h before the experiment cells were seeded into a 96-well flat bottom black plate (50,000 cells per well). After 24 h, the medium was replaced and cells were incubated at 37 °C for 30 min with a 10 mM solution of the fluorescent WSP-1 probe, which is highly sensitive for H2S detection. After incubation, the supernatant was removed and replaced with different concentrations (100, 200, and 300 µM) of the tested compounds dissolved in HBSS buffer. […] ADT 100 µM was used as a slow H2S-donor reference compound. Data were analyzed by one-way ANOVA for repeated measures, followed by post hoc Bonferroni’s multiple comparison test. Results are expressed as mean ± SEM of 3 independent experiments in triplicate. Statistical significance was accepted at a level of p < 0.05.
Next, we assessed the intracellular H2S release of thioureas and thioamides in HepG2 cells. The compounds were tested at different concentrations (100–300 μM) to evaluate if the release was dose-dependent. We also assayed ADT-OH and TIA as reference H2S-donors, and 3a as a negative control. The results were normalized to the fluorescence signal obtained with 100 μM ADT-OH.

[3] = Cell-free H2S release fluorescence assay with probe 9 (7-azido-4-methylcoumarin); assay type: physicochemical; details: overall, 24 h and 48 h, PBS/DMSO 10%
Experimental: The H2S release fluorescence assay was carried out in a final volume of 100 μL PBS/DMSO 10% in black 96-well plates. Solutions with decreasing concentrations of each tested compound were prepared in PBS/DMSO 10%. Then, 50 μL of each solution was dispensed in triplicate in each well. Starting from a 10 mM stock solution, a 200 μM solution of probe 9 was prepared and stored in the dark until 50 μL was dispensed in each well. Blank wells containing only the probe at 100 μM in 100 μL of PBS/DMSO 10% are also prepared. A H2S calibration curve was obtained by incubating solutions of NaSH with the probe under the same conditions, although a different plate was used to minimize interferences due to the diffusion of rapidly released H2S. After 24 h and 48 h incubation in a humidified incubator at 37 °C, 5% CO2, fluorescence reads are obtained from each well with a plate reader TECAN M1000 Pro (Tecan, Männedorf, Switzerland), at λex = 350 nm and λem = 440 nm. Each experiment was replicated at least three times. The data were processed using Microsoft Excel (Microsoft, Redmond, WA, USA) and GraphPad Prism 7 (GraphPad Software, La Jolla, CA, USA).
Compound 9 is a turn-on fluorescent probe that features an azido moiety which can be reduced to amine by H2S, leading to the formation of the fluorescent derivative 7-amino-4-methylcoumarin 10 (λex = 350 nm and λem = 440 nm, Scheme 2). We included NaHS in the assay as a positive control and 3a as a negative control.

[4] = Cell-free MTT-based H2S release assay; assay type: physicochemical; details: 24 h incubation in MEM with 10% DMSO
Experimental: Solutions at different concentrations of each compound in 100 µL of serum-free MEM/10% DMSO with 0.5 mg/mL 3-(4,5-dimethylthiazol-2yl)-2,5-diphenyltetrazolium bromide (MTT) were incubated for 5 h or 24 h in a humidified incubator at 37 °C in 5% CO2 atmosphere. The experimental design comprised blank wells containing only medium and MTT, and a H2S calibration curve obtained by incubating nine solutions at decreasing concentrations (100 µM to 0.01 µM) of NaHS in medium and MTT. At the end of incubation time, the supernatant was removed, the […] crystals were dissolved in 100 µL DMSO/EtOH (1:1 v/v), and absorbance values were read using a Victor 3 plate reader (PerkinElmer, Shelton, CT, USA) at 570 nm. H2S values are expressed as mean ± S.E.M. of the results of three independent experiments conducted in triplicate, and were plotted using GraphPad Prism 7.
To decipher such results and considering the redox properties of H2S, we questioned if H2S released by our compounds in the culture media could interfere with the conversion of MTT (3-[4,5-dimethylthiazol-2-yl]-2,5-diphenyl tetrazolium bromide) to formazan, which is usually related to cell viability. Thus, we ran cell-free experiments in which MTT was used as the substrate to capture the reductive action of H2S. We found, in agreement with Gerő et al., that some of our thioureas and thioamides reduced MTT to formazan after 24 h incubation in MEM with 10% DMSO.

[5] = tested on: HepG2 hepatocarcinoma cells; experiment: MTT cell viability assay, MTT added directly to treated media; assay type: cell-based, human; details: HepG2, highest tested doses 200 and 20 µM, vehicle 5% DMSO
Experimental: The cytotoxicity of our compounds was assessed using the well-established MTT assay. HepG2 hepatocarcinoma cells were cultured in Minimum Essential Medium (MEM) (Euroclone, Pero, Italy), supplemented with 10% fetal bovine serum (Euroclone, Pero, Italy), 100 U/mL penicillin, and 100 µg/mL streptomycin sulfate, at 37 °C in a humidified incubator in 5% CO2 atmosphere. For the MTT assays, these cells were cultured up to about 90% confluence and were then seeded at a concentration of 20,000 cells per well in 96-well plates. After 24 h, the culture medium was replaced with solutions at various concentrations of each compound in MEM/DMSO 5% (v/v). Control wells were incorporated in the experimental design, consisting of vehicle (MEM/DMSO 5%) and pure medium controls.
In the first round of cytotoxicity assays, 0.5 mg/mL MTT was added to each well 2 or 24 h from treatment and left to incubate for 3–5 h. In the second round of cytotoxicity assays, at 2 or 24 h after treatment, treated media were removed, the cells were washed once in PBS, and fresh medium containing 0.5 mg/mL MTT was added to each well and left to incubate for 3–5 h.
Subsequently, the supernatant was removed, and the formazan crystals were dissolved in DMSO/EtOH 1:1 (100 µL/well). Absorbance values were then recorded from each well using a Victor 3 plate reader (PerkinElmer, Shelton, CT, USA) at 570 nm. All presented data were obtained from 3 to 5 experiments performed in triplicate. Cell viability values are expressed as mean ± S.E.M. and were plotted using GraphPad Prism 7.
Next, we assessed H2S release in a biological environment using human hepatocarcinoma HepG2 cells as a model. The intracellular release of H2S was detected with the WSP-1 probe, a turn-on fluorescent probe that selectively and irreversibly reacts with H2S. Considering that a high micromolar concentration of the test compounds is required to obtain a robust fluorescent signal, we first evaluated the compounds’ cytotoxicity after 2 h and 24 h of incubation with the MTT assay in HepG2 cells. […] We accounted for this by adding a vehicle control with 5% DMSO and a control without DMSO to our experimental design.

N#Cc1ccc(C[C@H](NC(=O)Nc2ccc(F)cc2)C(=O)NCC2(c3ccc(F)c(Cl)c3)CC2)cc1 [3a, (S)-N-[[1-(3-chloro-4-fluorophenyl)cyclopropyl]methyl]-3-(4-cyanophenyl)-2-[3-(4-fluorophenyl)ureido]propenamide, reference compound]
inflammatory markers and social behavior [1]: improved inflammatory markers, with a beneficial effect on social behavior | effect on LPS-induced pro- and anti-inflammatory cytokine levels [2]: anti-inflammatory properties | neuronal survival, microglial cell density and plaque load (APP/PS1 mice): improvement of neuronal survival and decreased microglial cell density and plaque load | intracellular H2S release, WSP-1 fluorescence signal vs vehicle (HepG2 cells): comparable to that of the vehicle | H2S release detected with probe 9 in aqueous media [3]: no response | absorbance signal (MTT reduction to formazan) indicative of H2S release [4]: no signal | mortality compared to vehicle (MTT) [5]: > 50%
